Legend:
[1] = biological target: T1, Amine oxidase [flavin-containing] B (Homo sapiens, UniProt P27338)
T1 sequence (P27338 whole entry): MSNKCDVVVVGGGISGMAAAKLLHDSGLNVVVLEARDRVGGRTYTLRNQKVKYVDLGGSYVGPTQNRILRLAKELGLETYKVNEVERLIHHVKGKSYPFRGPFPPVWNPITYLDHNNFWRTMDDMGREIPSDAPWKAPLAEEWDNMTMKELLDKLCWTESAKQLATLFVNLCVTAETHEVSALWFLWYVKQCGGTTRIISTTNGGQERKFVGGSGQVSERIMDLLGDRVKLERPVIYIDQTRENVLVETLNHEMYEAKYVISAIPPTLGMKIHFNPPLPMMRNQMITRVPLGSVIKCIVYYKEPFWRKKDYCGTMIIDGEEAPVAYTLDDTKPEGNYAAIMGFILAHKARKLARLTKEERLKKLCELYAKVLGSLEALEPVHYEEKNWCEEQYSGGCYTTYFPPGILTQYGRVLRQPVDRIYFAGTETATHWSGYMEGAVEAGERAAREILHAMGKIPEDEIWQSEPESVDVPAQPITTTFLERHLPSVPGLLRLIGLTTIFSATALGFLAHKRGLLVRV
Description: Inhibition of human recombinant MAO-B using p-tyramine substrate after 15 mins by fluorimetric analysis

Homo sapiens = organism: Homo sapiens; assay: Selectivity index, ratio of IC50 for human recombinant MAO-A to IC50 for human recombinant MAO-B
[2] = biological target: T2, Amine oxidase [flavin-containing] A (Homo sapiens, UniProt P21397); assay: Inhibition of human recombinant MAO-A using p-tyramine substrate at 100 uM after 15 mins by fluorimetric analysis; settings: 0.25 h
T2 sequence (P21397 whole entry): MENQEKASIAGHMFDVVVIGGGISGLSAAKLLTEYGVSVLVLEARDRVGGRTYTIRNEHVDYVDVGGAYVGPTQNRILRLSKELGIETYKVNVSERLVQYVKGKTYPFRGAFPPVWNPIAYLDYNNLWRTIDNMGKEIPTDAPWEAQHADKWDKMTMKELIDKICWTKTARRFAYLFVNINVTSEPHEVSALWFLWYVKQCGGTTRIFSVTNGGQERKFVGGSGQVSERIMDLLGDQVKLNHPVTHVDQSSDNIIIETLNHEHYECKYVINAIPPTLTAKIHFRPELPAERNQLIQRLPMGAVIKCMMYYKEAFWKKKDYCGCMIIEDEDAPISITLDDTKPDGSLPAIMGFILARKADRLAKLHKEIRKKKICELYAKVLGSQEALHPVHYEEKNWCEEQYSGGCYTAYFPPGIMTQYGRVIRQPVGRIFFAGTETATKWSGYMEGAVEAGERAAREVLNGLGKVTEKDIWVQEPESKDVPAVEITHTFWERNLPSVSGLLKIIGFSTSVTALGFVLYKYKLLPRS

Acetylcholinesterase [3] = biological target: Acetylcholinesterase (Electrophorus electricus, UniProt O42275)
Chain of Acetylcholinesterase (Electrophorus electricus, UniProt O42275) (O42275 whole entry): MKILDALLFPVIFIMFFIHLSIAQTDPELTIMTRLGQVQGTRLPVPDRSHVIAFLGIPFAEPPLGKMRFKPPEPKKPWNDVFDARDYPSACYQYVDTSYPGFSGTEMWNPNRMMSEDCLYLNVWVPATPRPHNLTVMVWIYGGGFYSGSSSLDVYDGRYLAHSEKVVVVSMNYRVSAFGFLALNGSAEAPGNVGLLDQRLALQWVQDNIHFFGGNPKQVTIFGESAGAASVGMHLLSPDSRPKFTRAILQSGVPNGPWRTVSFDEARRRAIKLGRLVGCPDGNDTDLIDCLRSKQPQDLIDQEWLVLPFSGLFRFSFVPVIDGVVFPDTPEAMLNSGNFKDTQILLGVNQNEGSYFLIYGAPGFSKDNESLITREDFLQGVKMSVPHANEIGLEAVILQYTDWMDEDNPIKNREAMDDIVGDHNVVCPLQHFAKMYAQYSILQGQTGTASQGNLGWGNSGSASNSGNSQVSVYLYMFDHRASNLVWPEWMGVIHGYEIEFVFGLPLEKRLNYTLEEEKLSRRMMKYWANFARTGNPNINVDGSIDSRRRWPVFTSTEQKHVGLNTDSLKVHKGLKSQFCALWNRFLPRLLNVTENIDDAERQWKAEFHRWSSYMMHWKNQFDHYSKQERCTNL
Description: Inhibition of electric eel AChE using acetylthiocholine iodide as substrate preincubated for 6 mins followed by substrate addition measured up to 180 secs by spectrophotometric-based Ellman's method

Cholinesterase [4] = biological target: Cholinesterase (Equus caballus, UniProt P81908)
Chain of Cholinesterase (Equus caballus, UniProt P81908) (P81908 whole entry): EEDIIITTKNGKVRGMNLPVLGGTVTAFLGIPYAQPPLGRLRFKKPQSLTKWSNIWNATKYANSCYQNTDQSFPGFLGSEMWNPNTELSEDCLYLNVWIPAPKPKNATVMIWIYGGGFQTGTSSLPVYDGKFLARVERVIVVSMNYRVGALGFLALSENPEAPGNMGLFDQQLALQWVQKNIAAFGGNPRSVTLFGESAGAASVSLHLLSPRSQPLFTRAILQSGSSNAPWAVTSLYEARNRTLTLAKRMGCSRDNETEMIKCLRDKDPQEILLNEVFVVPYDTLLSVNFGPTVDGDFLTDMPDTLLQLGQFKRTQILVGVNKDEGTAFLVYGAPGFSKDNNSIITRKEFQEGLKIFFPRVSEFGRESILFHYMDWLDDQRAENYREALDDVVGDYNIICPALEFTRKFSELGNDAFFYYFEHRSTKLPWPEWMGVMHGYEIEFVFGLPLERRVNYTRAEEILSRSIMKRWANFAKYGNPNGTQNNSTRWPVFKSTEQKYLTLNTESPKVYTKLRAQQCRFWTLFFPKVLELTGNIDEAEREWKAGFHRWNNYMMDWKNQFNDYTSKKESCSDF
Description: Inhibition of equine serum BuChE using S-butyrylthiocholine iodide as substrate preincubated for 6 mins followed by substrate addition measured up to 180 secs by spectrophotometric-based Ellman's method

Cholinesterase [5] = biological target: Cholinesterase (Homo sapiens, UniProt P06276)
Chain of Cholinesterase (Homo sapiens, UniProt P06276) (P06276 whole entry): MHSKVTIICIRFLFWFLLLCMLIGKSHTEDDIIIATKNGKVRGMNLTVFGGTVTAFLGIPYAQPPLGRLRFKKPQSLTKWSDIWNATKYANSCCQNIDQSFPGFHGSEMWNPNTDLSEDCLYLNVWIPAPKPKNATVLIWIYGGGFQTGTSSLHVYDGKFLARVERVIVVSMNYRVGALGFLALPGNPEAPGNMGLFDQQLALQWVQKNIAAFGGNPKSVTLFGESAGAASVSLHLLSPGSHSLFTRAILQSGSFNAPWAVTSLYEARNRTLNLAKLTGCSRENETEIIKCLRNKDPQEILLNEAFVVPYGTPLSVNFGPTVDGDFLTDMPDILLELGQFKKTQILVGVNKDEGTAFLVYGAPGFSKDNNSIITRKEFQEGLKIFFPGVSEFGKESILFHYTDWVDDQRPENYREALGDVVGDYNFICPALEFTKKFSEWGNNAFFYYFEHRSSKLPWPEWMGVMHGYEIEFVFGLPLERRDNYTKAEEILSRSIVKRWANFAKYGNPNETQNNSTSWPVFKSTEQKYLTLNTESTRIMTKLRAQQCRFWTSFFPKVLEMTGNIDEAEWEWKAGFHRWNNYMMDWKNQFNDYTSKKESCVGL
Description: Inhibition of human serum BuChE using S-butyrylthiocholine iodide as substrate preincubated for 6 mins followed by substrate addition measured up to 180 secs by spectrophotometric-based Ellman's method

Acetylcholinesterase [6] = biological target: Acetylcholinesterase (Homo sapiens, UniProt P22303)
Chain of Acetylcholinesterase (Homo sapiens, UniProt P22303) (P22303 whole entry): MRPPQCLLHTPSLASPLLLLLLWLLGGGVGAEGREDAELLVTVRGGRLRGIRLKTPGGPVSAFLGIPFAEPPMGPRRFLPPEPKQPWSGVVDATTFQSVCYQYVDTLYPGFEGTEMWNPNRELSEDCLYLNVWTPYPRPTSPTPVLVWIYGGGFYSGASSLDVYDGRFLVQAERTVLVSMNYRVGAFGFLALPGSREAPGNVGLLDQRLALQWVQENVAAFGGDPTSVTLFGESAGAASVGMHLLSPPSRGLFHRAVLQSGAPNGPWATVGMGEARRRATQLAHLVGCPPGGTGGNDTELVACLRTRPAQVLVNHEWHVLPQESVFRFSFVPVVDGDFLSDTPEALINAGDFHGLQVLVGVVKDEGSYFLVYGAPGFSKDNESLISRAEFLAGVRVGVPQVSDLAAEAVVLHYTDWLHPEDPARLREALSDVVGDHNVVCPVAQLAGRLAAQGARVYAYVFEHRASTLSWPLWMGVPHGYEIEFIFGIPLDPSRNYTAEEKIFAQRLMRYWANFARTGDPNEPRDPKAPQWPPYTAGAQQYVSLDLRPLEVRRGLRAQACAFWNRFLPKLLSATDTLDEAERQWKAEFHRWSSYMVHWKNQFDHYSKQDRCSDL
Description: Inhibition of human erythrocyte AChE using acetylthiocholine iodide as substrate preincubated for 6 mins followed by substrate addition measured up to 180 secs by spectrophotometric-based Ellman's method

Row | SMILES | IC50 [1] [µM] | Ratio IC50 (Homo sapiens) | inhibition (INH) [2] | IC50 (Acetylcholinesterase [3]) [µM] | IC50 (Cholinesterase [4]) [µM] | IC50 (Cholinesterase [5]) [µM] | IC50 (Acetylcholinesterase [6]) [µM]
1 | Cc1cc2ccc(OCCNC3CCN(Cc4ccccc4)CC3)cc2oc1=O | 2.38 | > 42 | Not Active | 6.03 | 7.53 | – | –
2 | Cc1cc(=O)oc2cc(OCCNC3CCN(Cc4ccccc4)CC3)ccc12 | 2.75 | > 36.4 | Not Active | 5.62 | 4.38 | – | –
3 | O=c1cc(Cl)c2ccc(OCCNC3CCN(Cc4ccccc4)CC3)cc2o1 | 33.9 | > 2.95 | Not Active | 1.5 | 1.48 | 2.93 | 2.04
4 | Cc1c(Cl)c(=O)oc2cc(OCCNC3CCN(Cc4ccccc4)CC3)ccc12 | 14.7 | > 6.8 | Not Active | 1.58 | 1.42 | 1.68 | 1.82
5 | CCOc1cc(=O)oc2cc(OCCNC3CCN(Cc4ccccc4)CC3)ccc12 | 31.9 | > 3.13 | Not Active | 6.34 | 6.95 | – | –
6 | Cc1cc(=O)oc2cc(CNC3CCN(Cc4ccccc4)CC3)ccc12 | 1.93 | > 51.8 | Not Active | 7.28 | 10.8 | – | –
7 | O=c1ccc2ccc(OCCNC3CCN(Cc4ccccc4)CC3)cc2o1 | 8.39 | > 11.9 | Not Active | 4.42 | 5.34 | – | –

— ChEMBL document CHEMBL3763139, “Design, synthesis and biological evaluation of novel donepezil-coumarin hybrids as multi-target agents for the treatment of Alzheimer's disease” (Bioorg Med Chem, 2016)
